Values of other authors as cited in patent US20250136601A1 (priority 2022, published 2025).

Experiments:
[1] = biological target: postsynaptic D2 receptor (Homo sapiens (Human), UniProt P14416); settings: postsynaptic D2 receptor antagonist; Li et al., J Med Chem 2014; cited from earlier work
[2] = test system: depressive episodes associated with bipolar I or II disorder; settings: Calabrese et al. 2021; cited from earlier work

Sequence of postsynaptic D2 receptor (P14416 whole entry): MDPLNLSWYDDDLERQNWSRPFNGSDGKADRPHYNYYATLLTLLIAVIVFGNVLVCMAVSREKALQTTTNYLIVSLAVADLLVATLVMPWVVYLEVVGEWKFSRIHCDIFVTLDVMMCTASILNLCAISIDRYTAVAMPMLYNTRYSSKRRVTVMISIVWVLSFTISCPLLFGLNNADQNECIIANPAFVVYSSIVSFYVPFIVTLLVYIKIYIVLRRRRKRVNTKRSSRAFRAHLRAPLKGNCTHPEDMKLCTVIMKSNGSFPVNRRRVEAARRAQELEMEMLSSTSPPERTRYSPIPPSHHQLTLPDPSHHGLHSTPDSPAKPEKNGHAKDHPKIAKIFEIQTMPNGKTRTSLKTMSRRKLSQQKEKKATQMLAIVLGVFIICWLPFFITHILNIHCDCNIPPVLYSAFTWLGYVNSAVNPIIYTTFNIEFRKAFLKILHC

In the case of CN1CCN2c3c(cccc31)[C@@H]1CN(CCCC(=O)c3ccc(F)cc3)CC[C@@H]12 [lumateperone, Lumateperone], the Ki [1] is given as 0.032 µM and the patient response rate [2] is given as 51.1%.
